What was measured:
Type in all cases: functional
[1] = Cytotoxicity against ET-743 resistant human IGROV cells after 72 hrs
[2] = tested on: HeLa; test: Cytotoxicity against aplidine resistant human HeLa cells after 72 hrs; settings: for CC50: read-out: LC50 (the source's name)
[3] = tested on: SK-MEL-28; test: Cytotoxicity against human SK-MEL-28 cells after 72 hrs
[4] = tested on: A549; test: Cytotoxicity against human A549 cells after 72 hrs
[5] = tested on: LoVo; test: Cytotoxicity against doxorubicin resistant human LoVo cells after 72 hrs
[6] = tested on: PANC-1; test: Cytotoxicity against human PANC1 cells after 72 hrs; settings: for CC50: read-out: LC50 (the source's name)
[7] = tested on: HeLa; test: Cytotoxicity against human HeLa cells after 72 hrs; settings: for CC50: read-out: LC50 (the source's name)
[8] = tested on: SK-BR-3; test: Cytotoxicity against human SK-BR3 cells after 72 hrs; settings: for CC50: read-out: LC50 (the source's name)
[9] = tested on: DU-145; test: Cytotoxicity against human DU145 cells after 72 hrs; settings: for CC50: read-out: LC50 (the source's name)
[10] = tested on: K562; test: Cytotoxicity against human K562 cells after 72 hrs; settings: for CC50: read-out: LC50 (the source's name)
[11] = tested on: LoVo; test: Cytotoxicity against human LoVo cells after 72 hrs; settings: for CC50: read-out: LC50 (the source's name)
[12] = Cytotoxicity against human IGROV cells after 72 hrs; settings: for CC50: read-out: LC50 (the source's name)
[13] = tested on: HT-29; test: Cytotoxicity against human HT29 cells after 72 hrs
[14] = tested on: LNCaP; test: Cytotoxicity against human LNcaP cells after 72 hrs; settings: for CC50: read-out: LC50 (the source's name)

C=C(C)[C@H]1C/C2=C(\C(=O)OC)C(OC(C)CC)C(=O)/C=C(\C)C[C@@H]3C=C(C(=O)O3)[C@H](C1)O2 (stereo in doubt; 3)
GI50 [1]: 1.03 µM | TGI [1]: 3.64 µM | LC50 (50% lethal concentration) ([1]; Homo sapiens, IGROV, 72 h): 20.4 µM | GI50 [2]: 0.56 µM | TGI [2]: 1.31 µM | CC50 [2]: 5.26 µM | GI50 [3]: 0.54 µM | LC50 [3]: 2.13 µM | TGI [3]: 1.08 µM | GI50 [4]: 1.32 µM | TGI [4]: 4.59 µM | LC50 ([4]; Homo sapiens, A549, 72 h): 16.3 µM | GI50 [5]: 0.75 µM | LC50 ([5]; Homo sapiens, LoVo, 72 h): 13.8 µM | TGI ([5]; Homo sapiens, LoVo, 72 h): 2.72 µM | GI50 [6]: 0.58 µM | TGI [6]: 1.57 µM | CC50 [6]: 7.4 µM | GI50 [7]: 0.48 µM | TGI [7]: 0.93 µM | CC50 [7]: 1.8 µM | GI50 [8]: 0.039 µM | TGI [8]: 0.28 µM | CC50 ([8]; Homo sapiens, SK-BR-3, 72 h): > 22.5 µM | GI50 [9]: 1.95 µM | TGI ([9]; Homo sapiens, DU-145, 72 h): 5.31 µM | CC50 ([9]; Homo sapiens, DU-145, 72 h): 13.5 µM | GI50 [10]: 1.21 µM | TGI [10]: 2.47 µM | CC50 ([10]; Homo sapiens, K562, 72 h): 10.6 µM | GI50 [11]: 0.51 µM | TGI [11]: 1.16 µM | CC50 [11]: 3.8 µM | GI50 [12]: 0.52 µM | TGI [12]: 1.1 µM | CC50 [12]: 3.3 µM | GI50 [13]: 1.47 µM | TGI [13]: 4.14 µM | LC50 (concentration killing 50% of cells) ([13]; Homo sapiens, HT-29, 72 h): 11.1 µM | GI50 [14]: 1.69 µM | TGI [14]: 5.17 µM | CC50 [14]: 14.3 µM

C=C(C)[C@H]1C/C2=C(\C(=O)OC)[C@@H]3O[C@@](C)(CC3=O)C[C@@H]3C=C(C(=O)O3)[C@H](C1)O2
GI50 ([1]; Homo sapiens, IGROV, 72 h): 4.56 µM | LC50 (50% lethal concentration) ([1]; Homo sapiens, IGROV, 72 h): 16.5 µM | TGI ([1]; Homo sapiens, IGROV, 72 h): 8.68 µM | GI50 ([2]; Homo sapiens, HeLa, 72 h): 3.77 µM | TGI ([2]; Homo sapiens, HeLa, 72 h): 7.5 µM | CC50 ([2]; Homo sapiens, HeLa, 72 h): 15 µM | GI50 ([3]; Homo sapiens, SK-MEL-28, 72 h): 4.25 µM | LC50 ([3]; Homo sapiens, SK-MEL-28, 72 h): 13.6 µM | TGI ([3]; Homo sapiens, SK-MEL-28, 72 h): 7.61 µM | GI50 ([4]; Homo sapiens, A549, 72 h): 5.56 µM | LC50 ([4]; Homo sapiens, A549, 72 h): 25.6 µM | TGI ([4]; Homo sapiens, A549, 72 h): 11.9 µM | GI50 ([5]; Homo sapiens, LoVo, 72 h): 5.66 µM | LC50 ([5]; Homo sapiens, LoVo, 72 h): > 25.6 µM | TGI ([5]; Homo sapiens, LoVo, 72 h): 16.5 µM | GI50 ([6]; Homo sapiens, PANC-1, 72 h): 3.64 µM | TGI ([6]; Homo sapiens, PANC-1, 72 h): 7.15 µM | CC50 ([6]; Homo sapiens, PANC-1, 72 h): 14.1 µM | GI50 ([7]; Homo sapiens, HeLa, 72 h): 4.38 µM | TGI ([7]; Homo sapiens, HeLa, 72 h): 8.04 µM | CC50 ([7]; Homo sapiens, HeLa, 72 h): 14.8 µM | GI50 ([8]; Homo sapiens, SK-BR-3, 72 h): 6.4 µM | TGI ([8]; Homo sapiens, SK-BR-3, 72 h): 11.4 µM | CC50 ([8]; Homo sapiens, SK-BR-3, 72 h): 20.3 µM | GI50 ([9]; Homo sapiens, DU-145, 72 h): 4.35 µM | TGI ([9]; Homo sapiens, DU-145, 72 h): 8.32 µM | CC50 ([9]; Homo sapiens, DU-145, 72 h): 15.9 µM | GI50 ([10]; Homo sapiens, K562, 72 h): 5.58 µM | TGI ([10]; Homo sapiens, K562, 72 h): 8.89 µM | CC50 ([10]; Homo sapiens, K562, 72 h): 14.2 µM | GI50 ([11]; Homo sapiens, LoVo, 72 h): 3.41 µM | TGI ([11]; Homo sapiens, LoVo, 72 h): 6.61 µM | CC50 ([11]; Homo sapiens, LoVo, 72 h): 12.8 µM | GI50 ([12]; Homo sapiens, IGROV, 72 h): 4.05 µM | TGI ([12]; Homo sapiens, IGROV, 72 h): 7.68 µM | CC50 ([12]; Homo sapiens, IGROV, 72 h): 14.6 µM | GI50 ([13]; Homo sapiens, HT-29, 72 h): 6.48 µM | LC50 (concentration killing 50% of cells) ([13]; Homo sapiens, HT-29, 72 h): > 25.6 µM | TGI ([13]; Homo sapiens, HT-29, 72 h): 15.4 µM | GI50 [14]: 5.05 µM | TGI [14]: 8.96 µM | CC50 [14]: 15.9 µM

C=C(C)[C@H]1C/C2=C(\C(=O)OC)C(OC(C)CC)C(=O)/C=C(\C)C[C@@H]3C=C(C(=O)O3)[C@H](C1)O2 (stereo in doubt; 2)
GI50 [1]: 3.96 µM | LC50 (50% lethal concentration) [1]: 15.8 µM | TGI [1]: 7.92 µM | GI50 [2]: 3.17 µM | TGI [2]: 8.5 µM | CC50 [2]: 22.5 µM | GI50 [3]: 3.13 µM | LC50 [3]: 13.5 µM | TGI [3]: 6.5 µM | GI50 [4]: 5.85 µM | LC50 [4]: > 22.5 µM | TGI [4]: 12.3 µM | GI50 [5]: 1.87 µM | LC50 [5]: 11.9 µM | TGI [5]: 4.95 µM | GI50 [6]: 2.9 µM | TGI [6]: 6.91 µM | CC50 [6]: 16.5 µM | GI50 [7]: 3.33 µM | TGI [7]: 7.29 µM | CC50 [7]: 16 µM | GI50 [8]: 0.58 µM | TGI [8]: 1.43 µM | GI50 [9]: 3.98 µM | TGI [9]: 7.56 µM | CC50 [9]: 14.4 µM | GI50 [10]: 5.26 µM | TGI [10]: 9.45 µM | CC50 [10]: 17 µM | GI50 [11]: 3.46 µM | TGI [11]: 7.49 µM | CC50 [11]: 16.2 µM | GI50 [12]: 3.4 µM | TGI [12]: 6.91 µM | CC50 [12]: 14.1 µM | GI50 [13]: 4.93 µM | LC50 (concentration killing 50% of cells) [13]: 18.5 µM | TGI [13]: 9.54 µM
